The source of these data is ChEMBL document CHEMBL5352415, “Discovery of new macrophage M2 polarization modulators as multiple sclerosis treatment agents that enable the inflammation microenvironment remodeling” (Eur J Med Chem, 2022).

The structures appear in SMILES notation. Activity calls are given as the source filed them. The calls are words filed in the database; no cut-off is given here.

The test system of data set [1] is Mus musculus. Kind of data set: Anti-inflammatory activity in MOG (35 to 55 residues)/pertussis toxin-induced experimental autoimmune encephalomyelitis C57BL/6 mouse model assessed as T cell activation by measuring increase in CD44lo CD62Lhi naive T cells in DLN at 75 to 150 mg/kg, po administered once daily starting from day 7 to day 20 by flow cytometric analysis. In kind it is functional, organism-based. To be noted: dose 75-150 mg/kg, time 14.0 day.

Data set [2] is described as follows: Inhibition of M1 macrophage polarization in C57BL/6 mouse BMDM cells assessed as fold change in IL-6 gene level at 1 uM incubated for 24 hrs by qRT-PCR analysis (reference value: 1). In kind it is functional.
For data set [3], the system named is Mus musculus. Kind of data set: Anti-inflammatory activity in MOG (35 to 55 residues)/pertussis toxin-induced experimental autoimmune encephalomyelitis C57BL/6 mouse model assessed as M2 macrophage polarization by measuring increase in Mrc1 mRNA expression in CNS at 75 to 150 mg/kg, po administered once daily starting from day 7 to day 20 by qRT-PCR analysis. In kind it is functional, organism-based. To be noted: dose 75-150 mg/kg, time 14.0 day.

Data set [4] relates to Mus musculus. Kind of data set: Anti-inflammatory activity in MOG (35 to 55 residues)/pertussis toxin-induced experimental autoimmune encephalomyelitis C57BL/6 mouse model assessed as decrease in disease progression by measuring cumulative score at 75 to 150 mg/kg, po administered once daily starting from day 7 to day 20. To be noted: dose 75-150 mg/kg, time 14.0 day. In kind it is functional, organism-based.

Data set [5] relates to Mus musculus. The data set is described as follows: Anti-inflammatory activity in MOG (35 to 55 residues)/pertussis toxin-induced experimental autoimmune encephalomyelitis C57BL/6 mouse model assessed as T cell activation by measuring decrease in CD44hi CD62Llo T cells in spleen at 75 to 150 mg/kg, po administered once daily starting from day 7 to day 20 by flow cytometric analysis. In kind it is functional. Further details: scale not given: the % may be the effect or the level left. To be noted: dose 75-150 mg/kg, time 14 day.

In data set [6] the test system is Mus musculus. The data set is described as follows: Anti-inflammatory activity in MOG (35 to 55 residues)/pertussis toxin-induced experimental autoimmune encephalomyelitis C57BL/6 mouse model assessed as T cell activation by measuring decrease in CD44hi CD62Llo T cells in DLN at 75 to 150 mg/kg, po administered once daily starting from day 7 to day 20 by flow cytometric analysis. In kind it is functional. Set-up: scale not given: the % may be the effect or the level left. To be noted: dose 75-150 mg/kg, time 14 day.

For data set [7], the system named is Mus musculus. Kind of data set: Anti-inflammatory activity in MOG (35 to 55 residues)/pertussis toxin-induced experimental autoimmune encephalomyelitis C57BL/6 mouse model assessed as decrease in infiltrated inflammatory cells administered orally once daily starting from day 7 to day 20 by H&E staining based analysis. In kind it is functional, organism-based. To be noted: dose 75-150 mg/kg, route po, time 14.0 day.

A short description of data set [8]: Inhibition of M1 macrophage polarization in C57BL/6 mouse BMDM cells assessed as fold change in IL-1beta gene level at 1 uM incubated for 24 hrs by qRT-PCR analysis (reference value: 1). In kind it is functional.
Data set [9] concerns Mus musculus. Kind of data set: Anti-inflammatory activity in MOG (35 to 55 residues)/pertussis toxin-induced experimental autoimmune encephalomyelitis C57BL/6 mouse model assessed as decrease in F4/80+ CD86+ M1 macrophage in DLN at 75 to 150 mg/kg, po administered once daily starting from day 7 to day 20 by flow cytometric analysis. In kind it is functional, organism-based. To be noted: dose 75-150 mg/kg, time 14.0 day.

In data set [10] the target is RAC-beta serine/threonine-protein kinase (Homo sapiens, UniProt P31751). Kind of data set: Inhibition of AKT2 (unknown origin). In kind it is binding.
Data set [11] can be described thus: Half-life in ICR mouse at 50 mg/kg, po measured upto 24 hrs by LC/MS analysis. In kind it is ADME, organism-based. To be noted: in vivo.
The test system of data set [12] is Mus musculus. The data set is described as follows: Anti-inflammatory activity in MOG (35 to 55 residues)/pertussis toxin-induced experimental autoimmune encephalomyelitis C57BL/6 mouse model assessed as M2 macrophage polarization by measuring increase in Arg1 mRNA expression in CNS at 75 to 150 mg/kg, po administered once daily starting from day 7 to day 20 by qRT-PCR analysis. To be noted: dose 75-150 mg/kg, time 14.0 day. In kind it is functional, organism-based.

Data set [13] can be described thus: Induction of M2 macrophage polarization in C57BL/6 mouse BMDM cells assessed as fold increase in Arg1 gene level at 1 uM incubated for 24 hrs by qRT-PCR analysis. In kind it is functional.
The nature of data set [14]: AUC(0 to infinity) in ICR mouse at 50 mg/kg, po measured upto 24 hrs by LC/MS analysis. In kind it is ADME, organism-based. Set-up: dose 50 mg/kg, time < 24 hrs, route po. To be noted: in vivo.
Data set [15] concerns Mus musculus. Kind of data set: Anti-inflammatory activity in MOG (35 to 55 residues)/pertussis toxin-induced experimental autoimmune encephalomyelitis C57BL/6 mouse model assessed as increase in F4/80+ CD206+ M2 macrophage in DLN at 75 to 150 mg/kg, po administered once daily starting from day 7 to day 20 by flow cytometric analysis. To be noted: dose 75-150 mg/kg, time 14 day. In kind it is functional.

For data set [16], the system named is Mus musculus. Kind of data set: Anti-inflammatory activity in MOG (35 to 55 residues)/pertussis toxin-induced experimental autoimmune encephalomyelitis C57BL/6 mouse model assessed as T cell activation by measuring increase in CD44lo CD62Lhi naive T cells in spleen at 75 to 150 mg/kg, po administered once daily starting from day 7 to day 20 by flow cytometric analysis. In kind it is functional, organism-based. To be noted: dose 75-150 mg/kg, time 14.0 day.

The nature of data set [17]: AUC(0 to t) in ICR mouse at 50 mg/kg, po measured upto 24 hrs by LC/MS analysis. In kind it is ADME, organism-based. Set-up: dose 50 mg/kg, time < 24 hrs, route po. To be noted: in vivo.
For data set [18], the system named is BMDM. The data set is described as follows: Inhibition of LPS-induced M1 macrophage polarization in C57BL/6 mouse BMDM cells assessed as decrease in Inos gene level preincubated with LPS for 24 hrs followed by compound addition and measured after 24 hrs by qRT-PCR analysis. In kind it is functional, cell-based. To be noted: dose 0.05-2 µM.
The subject of data set [19] is Mus musculus. The data set is described as follows: Anti-inflammatory activity in MOG (35 to 55 residues)/pertussis toxin-induced experimental autoimmune encephalomyelitis C57BL/6 mouse model assessed as decrease in F4/80+ CD86+ M1 macrophage in spleen at 75 to 150 mg/kg, po administered once daily starting from day 7 to day 20 by flow cytometric analysis. In kind it is functional, organism-based. To be noted: dose 75-150 mg/kg, time 14.0 day.

Chain of RAC-beta serine/threonine-protein kinase (P31751 whole entry): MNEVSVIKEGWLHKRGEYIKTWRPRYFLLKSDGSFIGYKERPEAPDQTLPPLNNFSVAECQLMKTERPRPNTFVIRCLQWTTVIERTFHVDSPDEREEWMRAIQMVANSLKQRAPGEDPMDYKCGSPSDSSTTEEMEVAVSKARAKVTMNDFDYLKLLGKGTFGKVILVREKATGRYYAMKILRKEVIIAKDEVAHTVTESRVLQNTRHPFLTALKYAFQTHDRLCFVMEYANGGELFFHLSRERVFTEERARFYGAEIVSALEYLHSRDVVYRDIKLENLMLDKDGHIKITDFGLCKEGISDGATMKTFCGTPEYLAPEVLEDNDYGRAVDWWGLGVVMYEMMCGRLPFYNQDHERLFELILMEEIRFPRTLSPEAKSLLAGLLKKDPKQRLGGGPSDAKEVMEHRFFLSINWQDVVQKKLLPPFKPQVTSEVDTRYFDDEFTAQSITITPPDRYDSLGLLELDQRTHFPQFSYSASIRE

With `Cl.Cn1ncc(Br)c1-c1ccc(C(=O)N[C@@H]2CNCC[C@H]2c2ccc(F)c(F)c2)cc1C1CC1`, the outcome in [1], in data set [3], in data set [4], in data set [9], in [12] and in data set [16] was Active. Moreover, the result in data set [19] was Active. Further, the “fold change (FC)” value amounted to 2.22 in [2], 4.15 in data set [8] and 10.28 in [13]. The Activity is 19% in data set [5], 29% in data set [6], “Dose-Dependent Effect” in data set [7] and 10.6% in data set [15]. The IC50 in data set [10] was > 1 µM. In [11], this compound gave a half-life of 13.7 h. The same compound registered an AUC(0-inf) in data set [14] of 27900 ng·h/mL. In data set [17], this compound showed an AUC(0-t) at 24 h of 27600 ng·h/mL. Besides, the inhibition entry in data set [18] is “Dose-Dependent Effect”.
